Experimental data from patent US7365096B2, “Methods for selectively inhibiting Janus tyrosine kinase 3 (Jak3)” (Board of Regents, The University of Texas System, priority 2002, dated 2008).
Entries after “also recorded” stand apart in the source; their conditions may differ. Read-outs that look alike come from different tables or passages of the source.

Assays:
Format in all cases: cell-based
[1] = system: rat T cell line (Nb2-11c); assay: Proliferation of rat Nb2-11c T cells, IL-2 (Jak3) versus PRL (Jak2) stimulated
Method: (§1) Cell culture and treatment. The rat T-cell line Nb2-11c, originally developed by Dr. Peter Gout (Vancouver, Canada), was grown in RPMI-1640 with 10% fetal calf serum (Intergen, cat. no. 1020-90), 2 mM L-glutamine, 5 mM HEPES, pH 7.3, and penicillin-streptomycin (50 IU/ml and 50 μg/ml, respectively), at 37° C./5% CO2. Freshly explanted normal human T lymphocytes purified by isocentrifugation (Ficoll®; EM Science, Gibbstown, N.J.) were phytohemagglutinin (PHA)-activated for 72 hours as previously described.^23 T lymphocytes were made quiescent by washing and incubating for 24 hours in RPMI-1640 medium containing 1% fetal calf serum before exposure to cytokines. […] The Mannich base 649641P (NC1153) was generously provided by Dr. Jonathan Dimmock College of Pharmacy, University of Saskatchewan, Saskatoon, Saskatchewan, Canada. All cells were then stimulated with 1 nM recombinant human IL-2 (Hoffman-LaRoche, Basel, Switzerland), IL4 or IL7 (PeproTech), or ovine prolactin (PRL) supplied by the National Hormone and Pituitary Program, National Institute of Diabetes, Digestive, and Kidney Disease (Bethesda, Md.), at 37° C. Cell pellets were frozen at −70° C.
(§2) Proliferation assays. Quiescent human primary T-cells, YT or rat Nb2-11c T-cells (5.0×10^4/well) were plated in flat-bottom, 96-well microtiter plates in 200 μl of quiescent media in the absence or presence of 1 nM IL-2, -4, -7 (PeproTech, Rock Hill, N.J.), or PRL. Next, cells were treated for 16 hours with the Mannich base drug and then pulsed for 4 hours with [^3H]-thymidine (0.5 μCi/200 μl) and harvested onto fiberglass filters. [^3H]-thymidine incorporation was analyzed by liquid scintillation counting as previously described,^23 or using standard techniques that are well known in the art.
The rat T cell line (Nb2-11c) was chosen because it responds to either PRL/Jak2 or IL-2/Jak3 stimulation.
FIG. 14B through FIG. 39B show the chemical formulas of various Mannich base compounds and others (shown as salts) that were screened for ability to inhibit proliferation in prolactin or IL2 stimulated T-cells. […]

Fyn = Fyn (Homo sapiens, UniProt P06241); assay: Tyrosine phosphorylation of activated Fyn in YT cells; design: Cellular extracts were immunoprecipitated with anti-Fyn or anti-Lck antibodies; endogenous in cells; host or cells: YT cells; settings: 1-100 μM, 2 hours
p44/42 Erk1/2 = assay: IL-2-mediated p44/42 Erk1/2 phosphorylation in PHA-activated T cells; settings: human T-cells, 2 hours drug
Method: (§3) Solubilization of membrane proteins, immunoprecipitation, and Western blot analysis. Frozen cell pellets were thawed on ice and solubilized in 1% TX-100 lysis buffer (10^8 cells/ml) and clarified by centrifugation, as previously described.^16 For human T-cells, supernates were incubated rotating end over end for 2 hours at 4° C. with either 5 μl/ml polyclonal rabbit antisera raised against peptides derived from the unique COOH-termini of Jak3 (amino acid [a.a.] 1104-1124), carboxyl termini of human Stat5a (a.a. 775-794) or Stat5b (a.a. 777-787).^26 Ab and immunoprecipitated proteins were captured by incubation for 30 minutes with Protein A-Sepharose beads (Pharmacia, Piscataway, N.J.), sedimented for purification, and eluted by boiling in 2×SDS-sample buffer (20% Glycerol, 10% 2-Mercaptoethanol, 4.6% SDS, 0.004% Bromophenol blue in 0.125 M Tris pH 6.8) for 4 minutes. For phosphoMapk assays, approximately 25 μg of total cell lysate was dissociated in SDS-sample buffer and separated on 10% (all others on 7.5%) SDS-PAGE under reducing conditions. […]

adapter protein Shc = assay: Shc tyrosine phosphorylation (phospho-Western blot); settings: phospho-Western blots
Method: as §3

[2] = system: γc/Jak3-dependent PHA-activated human T cells; assay: Proliferation of PHA-activated human T cells ([3H]-thymidine); settings: for IC50: Homo sapiens
Method: as §1, §2

Sequence of Fyn (P06241 whole entry): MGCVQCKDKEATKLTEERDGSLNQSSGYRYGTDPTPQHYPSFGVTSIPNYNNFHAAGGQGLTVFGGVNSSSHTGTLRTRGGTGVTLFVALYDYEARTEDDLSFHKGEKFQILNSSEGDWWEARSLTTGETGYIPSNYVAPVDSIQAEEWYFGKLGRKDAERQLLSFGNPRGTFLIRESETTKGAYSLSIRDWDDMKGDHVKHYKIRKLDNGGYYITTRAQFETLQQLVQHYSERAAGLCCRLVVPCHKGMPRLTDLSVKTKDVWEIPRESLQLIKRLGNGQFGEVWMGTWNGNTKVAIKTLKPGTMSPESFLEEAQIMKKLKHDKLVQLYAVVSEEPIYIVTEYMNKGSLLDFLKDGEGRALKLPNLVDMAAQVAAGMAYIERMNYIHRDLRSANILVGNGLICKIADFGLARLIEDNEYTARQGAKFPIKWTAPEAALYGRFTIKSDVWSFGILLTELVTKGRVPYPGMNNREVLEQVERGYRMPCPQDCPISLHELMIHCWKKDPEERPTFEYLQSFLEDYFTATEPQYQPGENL

In the case of `CN(C)CC1CCCCCCCCCC(CN(C)C)C1=O` (mixture of isomers) [649641P (NC1153)], the “effectiveness for inhibiting Jak3- versus Jak2-dependent proliferation” value ([1]; 1 nM IL-2 vs 1 nM PRL, 0-100 μM, 16 hours) is reported as 3 fold, the “selective inhibition of IL-2/Jak3-dependent versus PRL/Jak2-dependent T-cell proliferation” value ([1]; IL-2 vs PRL stimulated) is reported as “selectively inhibits γc/Jak3-dependent but not PRL/Jak2-dependent cell proliferation” and the “inhibition of cell proliferation in response to IL-2, IL-4 and IL-7” value ([1]; as printed: Nb2-11c cells) is reported as “equally effective”. The “activity (tyrosine phosphorylation) of Fyn” value (Fyn) was “no effect; also recorded: does not block the activity; also recorded: did not inhibit”, the “IL2-mediated Erk1/2 phosphorylation / activation” value (p44/42 Erk1/2) was “blocks IL2-mediated Erk1/2 activation; also recorded: inhibited tyrosine phosphorylation” and the “tyrosine phosphorylation of adapter protein Shc” value (adapter protein Shc) was “inhibited tyrosine phosphorylation”. It also gave an IC50 ([2]; T-cell, 1 nM IL-4, read-out: IC50, IL4 driven cell growth) of ~2.5 µM, an IC50 ([2]; T-cell, 1 nM IL-7, read-out: IC50, IL7 driven cell growth) of ~2.5 µM and an IC50 ([2]; IL-2 driven T-cell growth, 16 hours drug, [3H]-thymidine, read-out: IC50, disrupting cell growth) of ~2.5 µM. The “IL2, IL4 or IL7 driven growth normalized to untreated controls” value ([2]; dose dependent) was “inhibits IL2, IL4 or IL7 driven growth”.
